PubChem BioAssay (NCI)
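Interpolation was linear, between the two tested concentrations surrounding the appropriate level; five concentrations were tested over 48 hours in 96-well plates. TGI: concentration producing complete growth inhibition.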

How the values were obtained:
Assay in all cases: inhibition of tumour cell growth, NCI panel, 48 h
786-0 renal = tested on: 786-0 renal
OVCAR-8 ovarian = tested on: OVCAR-8 ovarian
MDA-MB-231 breast = tested on: MDA-MB-231 breast
SK-MEL-5 melanoma = tested on: SK-MEL-5 melanoma
SF-539 CNS = tested on: SF-539 CNS
SN12C renal = tested on: SN12C renal
SK-OV-3 ovarian = tested on: SK-OV-3 ovarian
PC-3 prostate = tested on: PC-3 prostate
IGROV1 ovarian = tested on: IGROV1 ovarian
MALME-3M melanoma = tested on: MALME-3M melanoma
SNB-19 CNS = tested on: SNB-19 CNS
HL-60(TB) leukemia = tested on: HL-60(TB) leukemia
CCRF-CEM leukemia = tested on: CCRF-CEM leukemia
OVCAR-3 ovarian = tested on: OVCAR-3 ovarian
SR leukemia = tested on: SR leukemia
OVCAR-5 ovarian = tested on: OVCAR-5 ovarian

| SMILES | TGI (786-0 renal) [µM] | TGI (OVCAR-8 ovarian) [µM] | TGI (MDA-MB-231 breast) [µM] | TGI (SK-MEL-5 melanoma) [µM] | TGI (SF-539 CNS) [µM] | TGI (SN12C renal) [µM] | TGI (SK-OV-3 ovarian) [µM] | TGI (PC-3 prostate) [µM] | TGI (IGROV1 ovarian) [µM] | TGI (MALME-3M melanoma) [µM] | TGI (SNB-19 CNS) [µM] | TGI (HL-60(TB) leukemia) [µM] | TGI (CCRF-CEM leukemia) [µM] | TGI (OVCAR-3 ovarian) [µM] | TGI (SR leukemia) [µM] | TGI (OVCAR-5 ovarian) [µM] |
| --- | --- | --- | --- | --- | --- | --- | --- | --- | --- | --- | --- | --- | --- | --- | --- | --- |
| O=c1oc2ccccc2cc1-c1csc(Nc2cc(Cl)cc(Cl)c2)n1 | 12.9 | > 52 | 63.8 | > 100 | 5.16 | > 44.8 | > 49.5 | > 100 | 36 | 64.8 | > 52.8 | > 100 | > 100 | 35.2 | > 100 | > 100 |
| C[N+]1(C)CCOC(O)(c2ccccc2)C1 (configuration not stated) | > 100 | > 100 | > 100 | > 100 | > 100 | > 100 | > 100 | > 100 | > 100 | > 100 | > 100 | > 100 | > 100 | > 100 | > 100 | > 100 |
| O=C1N[C@H]2C(=O)c3c(Cl)sc(Cl)c3[C@H]2O1 | 31.3 | 7.74 | 32 | 35 | 20.6 | 30.3 | 28.9 | 31 | 10.6 | 33 | 29.9 | 4.91 | 10.9 | 3.54 | 6.71 | 37.7 |
| CN(CCCCN1CCCC1)CCCCN(C)C(=O)Cc1ccc(Cl)c(Cl)c1 | 25.7 | 64.9 | 23.5 | 19.9 | 23.3 | 36.8 | 47.2 | 36.4 | 37 | 34.4 | 36.8 | 36.1 | 20.7 | 44.5 | 14.3 | 41.2 |
| COc1ccc(C2C3=C(COC3=O)OC(C)(C)Oc3cc4c(cc32)OCO4)cc1 (configuration not stated) | > 100 | > 100 | 97.9 | 99.8 | > 72.7 | > 100 | > 100 | 73.4 | > 100 | > 100 | > 100 | > 61.3 | > 100 | > 100 | > 100 | > 100 |
| CC(C)(Cl)C(Br)CCC(CBr)=C(Cl)CCl (mixture of isomers) | 3.04 | 3.14 | 3.5 | 3.87 | 4.07 | 0.971 | > 8.72 | 5.56 | 2.2 | 4.13 | 9.73 | 2.95 | 0.568 | > 5.48 | 2.55 | > 8.21 |
| CCOC(=O)c1ccc(NC(=O)O/N=C(/Cl)C(C)C)cc1 | 16.5 | 27.9 | 39.7 | 30 | 34.6 | 44 | 33.4 | 34.9 | 43 | 8.49 | > 59.1 | 3.26 | 2.55 | 11.5 | 11.2 | 32.9 |
| Cc1ccc(/C=N/Nc2cc(C)c3ccccc3n2)s1 | > 100 | > 100 | 19.9 | 75.2 | 51.5 | 41.1 | 43.2 | 31.1 | 24.9 | 22.4 | > 100 | > 100 | > 100 | 7.93 | > 100 | 37.4 |
| CC(=O)Nc1ccc(-c2nc3ccccc3s2)cc1Cl | > 100 | > 100 | > 100 | > 100 | > 100 | > 100 | > 100 | > 100 | > 100 | > 100 | > 100 | > 100 | > 100 | > 100 | > 100 | > 100 |
| COCOc1cc(OC)c(Br)cc1C/C(=N/O)C(=O)OC | > 100 | > 100 | > 100 | > 100 | > 100 | > 100 | > 100 | > 100 | > 100 | > 100 | > 100 | > 100 | > 100 | > 100 | > 100 | > 100 |
| COc1cc(/C=C/C=C2\CCC/C(=C\C=C\c3ccc(O)c(OC)c3)C2=O)ccc1O | 63.5 | 72.3 | > 100 | 27.2 | 45.9 | 65.8 | > 100 | 38.2 | 74.7 | 44.8 | > 100 | > 100 | 8.99 | > 100 | 19.7 | 79.5 |
| Cc1ccc(C(=O)OC(C)C)cc1N=NN(C)C | > 100 | > 100 | > 100 | > 100 | > 100 | > 100 | > 100 | > 100 | > 100 | > 100 | > 100 | > 100 | > 100 | > 100 | > 100 | > 100 |
| CCOC(=O)NC(Nc1ccc(F)c(F)c1)(C(=O)OCC)C(F)(F)F (configuration not stated) | > 100 | > 100 | > 100 | > 100 | > 100 | > 100 | > 100 | > 100 | > 100 | > 100 | > 100 | > 100 | > 100 | > 100 | > 100 | > 100 |
| CCCCC1C(=O)N(c2ccc(S(=O)(=O)Nc3ccccn3)cc2)N(c2ccc(O)c(C(=O)O)c2)C1=O (configuration not stated) | > 100 | > 100 | > 100 | > 100 | > 100 | > 100 | > 100 | > 100 | > 100 | > 100 | > 100 | > 100 | > 100 | > 100 | > 100 | > 100 |
| Cc1ccc(-c2cn3c(nc4ccccc43)c(-c3ccccc3)n2)cc1 | 49.2 | > 100 | > 100 | > 100 | > 100 | > 100 | 47.9 | > 100 | > 100 | > 100 | 48.7 | > 100 | > 100 | > 100 | > 100 | > 100 |
| COC(=O)/C=C\[C@@H]1[C@H](C)N1S(=O)(=O)c1ccc(C)cc1 (some centres not stated) | > 100 | > 100 | > 100 | > 100 | > 100 | > 100 | > 100 | > 100 | > 100 | > 100 | > 100 | > 100 | > 100 | > 100 | > 100 | > 100 |
| O=C1NC(=O)[C@@H](OCC2CCCCC2)[C@@H]2OCC3OC(C(O)C3O)C12 (some centres not stated) | > 100 | > 100 | > 100 | > 100 | > 100 | > 100 | > 100 | > 100 | > 100 | > 100 | > 100 | > 100 | > 100 | > 100 | > 100 | > 100 |
